Experimental data: ChEMBL document CHEMBL1201862, “PubChem BioAssay data set” (2004)
Active and inactive are the calls of the source.

Tests used:
A-375 = assay: MITF: Counter assay: A375 proliferation Measured in Cell-Based System Using Plate Reader - 2084-03_Inhibitor_Dose_DryPowder_Activity. [Related pubchem assays (depositor defined):AID488944]; assay type: functional; settings: Homo sapiens
[1] = toxicity toward HepG2 liver cells – cell-based, plate reader, cherry-pick, antagonist series, cytotoxicity control, dose response (AID 743416); assay type: functional
[2] = blockers of bursicon-stimulated LGR2 cAMP reporter – cell-based, HEK293, CRE-luciferase reporter, cherry pick, set 2, dose response (AID 743343); assay type: functional;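 also: transfected cells were stimulated with diluted bursicon conditioned medium after compound addition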
[3] = biological target: T1, Microphthalmia-associated transcription factor (Homo sapiens, UniProt O75030); assay: reducers of TRPM1 reporter luminescence, concentration series – cell-based, SK-MEL-5, cherry-picked, set 3, MITF inhibitor project, dose response (AID 493073); assay type: functional;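 also: SK-MEL-5 melanoma cells with luciferase driven by the MITF target TRPM1 promoter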
T1 sequence (O75030 whole entry): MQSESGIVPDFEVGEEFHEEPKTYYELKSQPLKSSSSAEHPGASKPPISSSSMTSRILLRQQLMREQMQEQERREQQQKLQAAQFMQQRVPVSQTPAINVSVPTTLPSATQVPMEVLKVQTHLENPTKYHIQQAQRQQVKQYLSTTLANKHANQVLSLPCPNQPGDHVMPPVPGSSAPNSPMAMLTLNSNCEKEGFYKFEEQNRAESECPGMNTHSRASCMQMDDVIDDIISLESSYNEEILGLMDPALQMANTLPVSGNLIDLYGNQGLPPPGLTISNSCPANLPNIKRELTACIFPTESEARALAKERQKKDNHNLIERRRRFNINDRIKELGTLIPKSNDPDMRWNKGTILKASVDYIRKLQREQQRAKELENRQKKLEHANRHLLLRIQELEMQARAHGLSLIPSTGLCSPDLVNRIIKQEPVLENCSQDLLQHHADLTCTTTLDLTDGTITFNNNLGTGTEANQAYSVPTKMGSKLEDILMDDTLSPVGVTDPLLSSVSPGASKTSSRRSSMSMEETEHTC

[4] = A549 cell cytotoxicity, dose response, cytotoxicity control, plate reader, cherry-pick, antagonist series (AID 743412); assay type: functional, cell-based
[5] = blockade of melanocortin 4 receptor signaling – cell-based, plate reader, cherry pick, counter-screen for LGR2 antagonist project, dose response (AID 743444); assay type: functional;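 also: transfected HEK 293 cells stimulated with alpha-MSH peptide; potency of inhibitors of the alpha-MSH evoked signal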
[6] = viability loss in HEK293 cells – cell-based, plate reader, cherry-picked samples, cytotoxicity control, dose response (AID 743446); assay type: functional
Escherichia coli = assay: microbe, parasite or virus in culture
[7] = tested on: Streptococcus sp. 'group A'; assay: Streptococcus pyogenes SK(-)GAS viability under kanamycin – luminescence, BacTiterGlo, confirmation, counter-screen for streptokinase expression inhibitor project, dose response (AID 1900); assay type: functional, organism-based
Streptokinase A = biological target: T2, Streptokinase A (Streptococcus pyogenes serotype M1, UniProt P10520); assay: viability-normalized secreted streptokinase activity reduction – plasminogen activation absorbance, OD405, dose response (AID 1914); assay type: functional, Streptococcus pyogenes M1 GAS;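 also: secreted streptokinase activity via plasminogen activation per viability signal from cell pellet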
T2 sequence (P10520 whole entry): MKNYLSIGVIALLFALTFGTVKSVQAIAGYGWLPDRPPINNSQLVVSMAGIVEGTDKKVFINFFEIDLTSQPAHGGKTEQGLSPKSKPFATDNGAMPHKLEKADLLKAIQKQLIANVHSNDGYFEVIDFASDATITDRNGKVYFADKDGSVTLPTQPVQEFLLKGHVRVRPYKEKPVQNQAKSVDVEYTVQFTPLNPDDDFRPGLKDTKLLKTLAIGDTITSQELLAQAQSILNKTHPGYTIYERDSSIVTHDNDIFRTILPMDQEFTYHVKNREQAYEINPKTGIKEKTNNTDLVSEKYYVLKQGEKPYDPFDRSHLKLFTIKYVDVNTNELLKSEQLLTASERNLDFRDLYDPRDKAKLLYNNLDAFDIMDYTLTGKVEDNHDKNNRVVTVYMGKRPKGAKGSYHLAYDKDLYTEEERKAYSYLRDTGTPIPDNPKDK

Streptococcus = assay: GAS UMAA2166 growth inhibition – luminescence, BacTiterGlo, counter-screen for streptokinase expression inhibitor project, dose response (AID 1915); assay type: functional, organism-based;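 also: potency for reduction of bacterial viability or growth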
[8] = biological target: Heat shock cognate 71 kDa protein (Homo sapiens, UniProt P11142); assay: In Vitro Hsc70 Dose Response Fluorescence Polarization Assay. [Related pubchem assays: 1072 ]
Sequence of Heat shock cognate 71 kDa protein (P11142 whole entry): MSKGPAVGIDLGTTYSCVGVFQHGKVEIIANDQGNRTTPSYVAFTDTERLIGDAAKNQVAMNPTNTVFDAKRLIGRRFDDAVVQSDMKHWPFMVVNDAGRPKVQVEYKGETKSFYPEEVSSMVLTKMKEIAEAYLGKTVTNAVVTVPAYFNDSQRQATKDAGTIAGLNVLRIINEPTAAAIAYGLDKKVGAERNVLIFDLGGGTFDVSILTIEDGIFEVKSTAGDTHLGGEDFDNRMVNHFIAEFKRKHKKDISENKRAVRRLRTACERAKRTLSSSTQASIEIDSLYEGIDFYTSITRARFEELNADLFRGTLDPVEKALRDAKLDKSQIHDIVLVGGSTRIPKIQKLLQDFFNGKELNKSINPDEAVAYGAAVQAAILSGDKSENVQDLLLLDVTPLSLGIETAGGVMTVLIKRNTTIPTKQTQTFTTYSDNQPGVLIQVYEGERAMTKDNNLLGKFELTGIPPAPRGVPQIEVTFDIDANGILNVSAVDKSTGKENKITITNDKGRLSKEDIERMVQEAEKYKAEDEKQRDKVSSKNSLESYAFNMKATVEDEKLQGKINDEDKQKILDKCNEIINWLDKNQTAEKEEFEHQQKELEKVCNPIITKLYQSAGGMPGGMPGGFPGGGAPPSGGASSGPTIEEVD

[9] = biological target: T3, Dual specificity protein phosphatase 6 (Rattus norvegicus, UniProt Q64346); assay type: functional
T3 sequence (Q64346 whole entry): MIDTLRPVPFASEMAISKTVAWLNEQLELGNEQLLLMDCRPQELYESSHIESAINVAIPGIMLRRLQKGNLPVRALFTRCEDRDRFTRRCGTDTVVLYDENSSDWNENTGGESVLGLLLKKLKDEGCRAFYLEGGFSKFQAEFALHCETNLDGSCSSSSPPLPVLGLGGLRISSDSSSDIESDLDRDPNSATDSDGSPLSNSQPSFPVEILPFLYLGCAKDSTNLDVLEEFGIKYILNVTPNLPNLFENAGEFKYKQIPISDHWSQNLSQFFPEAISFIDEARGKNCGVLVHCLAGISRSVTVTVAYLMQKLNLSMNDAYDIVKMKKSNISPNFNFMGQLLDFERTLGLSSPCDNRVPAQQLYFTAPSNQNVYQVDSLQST

[10] = biological target: Heat shock 70 kDa protein 1A (Homo sapiens, UniProt P0DMV8); assay: inhibition of Hsp70 binding activity – biochemical, fluorescence polarization, SAR follow-up (AID 1072)
Sequence of Heat shock 70 kDa protein 1A (P0DMV8 whole entry): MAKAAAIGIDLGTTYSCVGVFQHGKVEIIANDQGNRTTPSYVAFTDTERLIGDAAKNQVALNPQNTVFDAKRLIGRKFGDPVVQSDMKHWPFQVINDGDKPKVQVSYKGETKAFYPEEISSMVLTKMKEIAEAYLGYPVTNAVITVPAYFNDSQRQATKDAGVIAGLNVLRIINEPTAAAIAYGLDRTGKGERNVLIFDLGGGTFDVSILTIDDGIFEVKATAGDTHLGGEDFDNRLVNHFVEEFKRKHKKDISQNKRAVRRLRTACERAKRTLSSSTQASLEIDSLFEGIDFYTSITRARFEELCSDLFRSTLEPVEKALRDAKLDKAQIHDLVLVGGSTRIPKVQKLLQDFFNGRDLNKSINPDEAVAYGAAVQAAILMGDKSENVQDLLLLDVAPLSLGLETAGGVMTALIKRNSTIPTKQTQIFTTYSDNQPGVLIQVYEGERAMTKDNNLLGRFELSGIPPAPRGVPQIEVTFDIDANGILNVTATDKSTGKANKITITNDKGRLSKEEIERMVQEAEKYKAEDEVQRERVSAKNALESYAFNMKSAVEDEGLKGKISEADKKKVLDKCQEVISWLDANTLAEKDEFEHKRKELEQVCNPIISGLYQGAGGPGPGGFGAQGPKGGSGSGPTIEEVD

[11] = biological target: T3, Dual specificity protein phosphatase 6
[12] = biological target: Glyceraldehyde-3-phosphate dehydrogenase (Homo sapiens, UniProt P04406)
Sequence of Glyceraldehyde-3-phosphate dehydrogenase (P04406 whole entry): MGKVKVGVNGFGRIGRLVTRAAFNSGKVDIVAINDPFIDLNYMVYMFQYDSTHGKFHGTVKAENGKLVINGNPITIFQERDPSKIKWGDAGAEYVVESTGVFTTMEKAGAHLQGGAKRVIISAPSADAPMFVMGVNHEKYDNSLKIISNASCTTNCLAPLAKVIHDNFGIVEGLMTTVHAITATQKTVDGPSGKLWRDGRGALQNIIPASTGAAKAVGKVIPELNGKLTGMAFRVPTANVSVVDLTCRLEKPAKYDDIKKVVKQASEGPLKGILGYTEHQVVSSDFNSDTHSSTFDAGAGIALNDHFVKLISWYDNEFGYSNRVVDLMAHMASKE

[13] = biological target: T4, Tyrosine-protein phosphatase non-receptor type 7 (Homo sapiens, UniProt P35236); assay type: functional
T4 sequence (P35236 whole entry): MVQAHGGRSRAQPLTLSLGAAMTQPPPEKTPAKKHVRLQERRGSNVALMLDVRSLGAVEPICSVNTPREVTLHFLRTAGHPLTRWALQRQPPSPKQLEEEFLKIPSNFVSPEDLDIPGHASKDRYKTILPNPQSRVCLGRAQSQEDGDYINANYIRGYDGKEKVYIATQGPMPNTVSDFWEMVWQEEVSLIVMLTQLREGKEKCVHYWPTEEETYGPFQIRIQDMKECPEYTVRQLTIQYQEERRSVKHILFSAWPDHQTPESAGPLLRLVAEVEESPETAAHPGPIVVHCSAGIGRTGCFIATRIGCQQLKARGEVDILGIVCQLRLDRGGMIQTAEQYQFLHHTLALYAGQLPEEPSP

Cc1ccccc1-c1nc(-c2ccccn2)no1
active: AC50 (A-375) 14.8 µM | AC50 [1] 23 µM | AC50 [2] 1.81 µM | AC50 [3] 4.18 µM | AC50 [4] 12.9 µM | AC50 [5] 1.8 µM | AC50 [6] 17.1 µM

Cc1ccc(NC(=O)NCc2ccccn2)cc1Cl
active: AC50 (Escherichia coli) 343 µM
> 150 µM (not active): EC50 [7] | EC50 (Streptokinase A) | EC50 (Streptococcus)

CCOc1cc2c(c([N+](=O)[O-])c1)NC(C(=O)O)C1CC=CC21 (configuration not stated)
inactive: IC50 [9] > 100 µM | IC50 [11] > 100 µM
> 100 µM (not active): IC50 [8] | IC50 [10] | IC50 [12] | IC50 [13]
